From patent publication US8431703B2, “Pyrrolopyridine compounds and their use in treating disease” (Novartis AG, priority 2005, dated 2013)
pIC50, pKi: −log10 of the molar value.

Columns and labels:
human CRTh2 [1] = target: T1, human CRTh2 (Homo sapiens, UniProt Q9Y5Y4); assay: CRTH2 cAMP functional assay in CHO.K1-CRTh2 cells; assay type: cell-based; set-up: expressed in transfected cells; host or cells: CHO.K1-CRTh2 cells; conditions: inhibition of PGD2-mediated attenuation of forskolin-induced cAMP accumulation
T1 sequence (Q9Y5Y4 1-395): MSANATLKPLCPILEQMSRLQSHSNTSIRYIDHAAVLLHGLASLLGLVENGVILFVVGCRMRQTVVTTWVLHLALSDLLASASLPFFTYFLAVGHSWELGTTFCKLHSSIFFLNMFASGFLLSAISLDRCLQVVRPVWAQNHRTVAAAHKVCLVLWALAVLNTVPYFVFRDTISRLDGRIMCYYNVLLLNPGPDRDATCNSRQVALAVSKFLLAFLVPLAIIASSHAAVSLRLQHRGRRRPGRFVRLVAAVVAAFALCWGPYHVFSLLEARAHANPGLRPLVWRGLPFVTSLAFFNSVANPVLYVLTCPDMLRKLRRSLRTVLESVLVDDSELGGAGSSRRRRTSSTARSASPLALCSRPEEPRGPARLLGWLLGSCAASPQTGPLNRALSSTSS
Method: This assay is conducted in CHO.K1-CRTh2 cells. cAMP is generated in the cell by stimulating cells with 5 μM forskolin, an adenylate cyclase activator. PGD2 is added to activate the CRTh2 receptor which results in the attenuation of the forskolin-induced cAMP accumulation. Potential CRTh2 antagonists are tested for their ability to inhibit the PGD2-mediated attenuation of the forskolin-induced cAMP accumulation in CHO.K1-CRTh2 cells.
For each concentration value on the dose-response curve, test compounds are prepared in assay stimulation buffer (HBSS, 5 mM HEPES, 10 μM IBMX±0.1% human serum albumin) containing DMSO (3% vol/vol) and 5 μL/well is added to an assay plate (384 well white optiplate).
CHO.K1-CRTh2 cultured in tissue culture flasks are washed with PBS and harvested with dissociation buffer. Cells are washed with PBS and resuspended in stimulation buffer to a concentration of 0.4×10^6/mL and added to the assay plate (10 μL/well).
The assay plate is incubated at room temperature on a shaker for 15 minutes.
A mix of agonist (10 nM Prostaglandin D2) and 5 μM forskolin is prepared in assay stimulation buffer and added to the assay plate (5 μL/well).
In addition, a cAMP standard is serially diluted in assay stimulation buffer and added to separate empty wells on the assay plate (20 μL/well). The cAMP standard allows for the quantification of cAMP generated in CHO.K1-CRTH2 cells.
The assay plate is incubated at room temperature on a shaker for 60 minutes.
Cell lysis buffer (Lysis buffer: Milli-Q H20, 5 mM HEPES, 0.3% Tween-20, 0.1% human serum albumin) is added to a bead mix (containing Alphascreen™ anti-cAMP acceptor beads 0.06 units/IL, Alphascreen™ streptavidin-coated donor beads 0.06 units/μL, biotinylated cAMP 0.06 units/μL, 10 μM IBMX) is prepared under darkened conditions 60 minutes prior to addition to the assay plate. The resulting lysis mix is added to all wells of the assay plate (40 μL/well).
The assay plate is sealed with Topseal-S™ and incubated in the dark at room temperature on a shaker for 45 minutes. The plate is then counted using a Packard Fusion™ instrument.
The resulting counts per minute are converted to nM cAMP by using the prepared cAMP standard curve. IC50 values (concentration of CRTh2 antagonist required to inhibit 50% of the PGD2-mediated attenuation of forskolin-induced cAMP accumulation in CHO.K1-CRTh2 cells) are then determined using Prism™ software.

human CRTh2 [2] = target: T1, human CRTh2; assay: CRTh2 [3H]-PGD2 binding assay (filtration binding protocol; called SPA binding assay); set-up: expressed in transfected cells; host or cells: CHO.K1 (Chinese Hamster Ovary) cells, membrane preparation; conditions: competition with [3H]-PGD2 2.5 nM, CHO.K1-CRTh2 membranes
Method: The binding of CRTh2 modulators is determined using membranes prepared from human CRTh2-expressing Chinese Hamster Ovary cells (CHO.K1-CRTh2). To produce cell membranes CHO.K1-CRTh2 cells cultured in roller bottles are harvested using cell dissociation buffer (Invitrogen). The cells are pelleted by centrifugation (167 g, 5 min). The cell pellet is incubated in hypotonic buffer (15 mM Tris-OH, 2 mM MgCl2, 0.3 mM EDTA, 1 mM EGTA, 1× Complete™ tablet) at 4° C. for 30 min. At 4° C. cells are homogenized using a Polytron® (IKA Ultra Turrax T25) for 5 bursts of 1 second. The homogenate is centrifuged (Beckman Optima™ TL Ultracentrifuge, 48000 g, 30 min at 4° C.). The supernatant is discarded and the membrane pellet resuspended in homogenisation buffer (75 mM Tris-OH, 12.5 mM MgCl2, 0.3 mM EDTA, 1 mM EGTA, 250 mM Sucrose, 1× Complete™ tablet. Membrane preparations are aliquoted and stored at […]. The protein content is estimated using Bradford Protein Assay Dye (Bio Rad).
The binding of [^3H]-PGD2 (157 Ci/mmol) to CHO.K1-CRTh2 membranes is determined in the absence (total binding) and presence (non-specific binding) of unlabelled PGD2 (1 μM). Subtraction of the cpm (counts per minute) of [^3H]-PGD2 binding in presence of excess unlabelled PGD2 from that observed in the absence of excess unlabelled PGD2 is defined as specific binding. Active CRTh2 modulators are able to compete with [^3H]-PGD2 for binding to the CRTh2 receptor and are identified in a decrease in the number of cpm bound.
The assay is performed in Greiner U-bottomed 96 well-plates, in a final volume of 100 μl per well. CHO.K1-CRTh2 membranes were diluted in assay buffer (10 mM HEPES-KOH (pH 7.4), 1 mM EDTA and 10 mM MnCl2) and 10 μg are added to each well. [^3H]-PGD2 is diluted in assay buffer and added to each well at a final concentration of 2.5 nM. To determine non-specific binding, [^3H]-PGD2 binding to the CRTh2 receptor is competed with using unlabelled PGD2 at a final well concentration of 1 μM. The experiment is done in triplicate, with reagents added to the wells as follows: • 25 μL assay buffer for total binding or • 25 μL PGD2 to determine non-specific binding • 25 μL [^3H]PGD2 • 50 μL membranes • 25 μL test compound in DMSO/assay buffer
The plates are incubated at room temperature on a shaker for 1 hour, and then harvested (Tomtec Harvester 9600) onto GF/C filter plates using wash buffer (10 mM HEPES-KOH, pH 7.4). […] Plates are then counted using a Packard Top Count instrument, Plates are then read on the Packard Topcount with the 3H Scintillation program (1 min per well). • Ki (dissocation constant for the inhibition) values for the CRTh2 modulators are reported. Ki values are determined using Sigma Plot™ software, using the Cheng-Prussoff equation. […]

Row | pIC50 (human CRTh2 [1]) | pKi (human CRTh2 [2]) | SMILES
1 | 7.08 | 7.47 | Cc1c(CC(=O)O)c2cccnc2n1Cc1ccc(S(=O)(=O)N2CCCC2)cc1 [Example 2]
2 | 7.74 | 8.70 | Cc1c(CC(=O)O)c2cccnc2n1Cc1ccc(S(=O)(=O)N(C)C2CCCCC2)cc1 [Example 6, {1-[4-(Cyclohexyl-methyl-sulfamoyl)-benzyl]-2-methyl-1H-pyrrolo[2,3-b]pyridin-3-yl}-acetic acid]
3 | 7.38 | 6.62 | Cc1c(CC(=O)O)c2cccnc2n1Cc1ccc(S(=O)(=O)N2CCCCC2)cc1 [Example 4]
4 | 7.22 | 7.52 | Cc1c(CC(=O)O)c2cccnc2n1Cc1ccc(S(=O)(=O)N2CCOCC2)cc1 [Example 1, {2-methyl-1-[4-(morpholine-4-sulfonyl)-benzyl]-1H-pyrrolo[2,3-b]pyridine-3-yl}acetic acid]
